Data taken from PubChem BioAssay AID1645866 (Buhrlage Lab, Dana-Farber Cancer Institute and Novartis …, 2021).
The source made the active and inactive calls.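 How the source made its calls: active means in confirmatory dose-response testing, peak deubiquitinase inhibition of 30% or more; inactive means the rest.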

target: Ubiquitin carboxyl-terminal hydrolase 28 (Homo sapiens) (UniProt Q96RU2); experiment: Concentration-response biochemical assay confirming initial hits as inhibitors of ubiquitin-specific protease 28 (AID 1645866); conditions: purified USP28, ubiquitin-rhodamine fluorescence, 30 min
Sequence (Q96RU2 whole entry, looked up): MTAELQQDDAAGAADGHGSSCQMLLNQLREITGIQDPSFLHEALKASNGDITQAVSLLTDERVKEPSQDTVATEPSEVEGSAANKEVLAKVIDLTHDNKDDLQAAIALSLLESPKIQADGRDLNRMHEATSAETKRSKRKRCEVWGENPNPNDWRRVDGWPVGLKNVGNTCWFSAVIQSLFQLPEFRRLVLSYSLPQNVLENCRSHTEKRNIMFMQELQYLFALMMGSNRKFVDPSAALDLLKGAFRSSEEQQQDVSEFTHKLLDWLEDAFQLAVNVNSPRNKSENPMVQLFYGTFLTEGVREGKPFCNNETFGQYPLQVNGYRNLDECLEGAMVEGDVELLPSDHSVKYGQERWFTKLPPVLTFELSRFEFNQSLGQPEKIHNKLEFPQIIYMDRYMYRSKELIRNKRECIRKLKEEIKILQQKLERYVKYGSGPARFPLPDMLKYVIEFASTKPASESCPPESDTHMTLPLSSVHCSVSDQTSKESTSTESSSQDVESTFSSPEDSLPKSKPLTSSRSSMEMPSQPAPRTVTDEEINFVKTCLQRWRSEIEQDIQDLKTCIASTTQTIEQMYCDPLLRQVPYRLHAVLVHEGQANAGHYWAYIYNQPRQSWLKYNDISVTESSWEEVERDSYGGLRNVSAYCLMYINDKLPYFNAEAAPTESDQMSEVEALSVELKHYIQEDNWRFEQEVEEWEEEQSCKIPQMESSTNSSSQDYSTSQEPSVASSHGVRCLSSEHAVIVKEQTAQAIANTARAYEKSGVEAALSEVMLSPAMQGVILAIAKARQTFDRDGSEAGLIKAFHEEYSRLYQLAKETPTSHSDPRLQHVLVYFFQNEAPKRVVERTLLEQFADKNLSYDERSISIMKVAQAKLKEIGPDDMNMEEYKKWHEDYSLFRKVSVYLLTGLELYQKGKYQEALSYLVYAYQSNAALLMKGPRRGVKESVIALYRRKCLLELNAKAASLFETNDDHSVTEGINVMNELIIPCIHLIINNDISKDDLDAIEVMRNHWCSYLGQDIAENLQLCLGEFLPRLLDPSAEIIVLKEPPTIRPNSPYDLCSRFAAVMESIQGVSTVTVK

IC50, inactive:
Cc1ccc(C(=O)N2CCCC3(C2)Nc2cccnc2NC3=NC2CCCC2)s1 (stereo unspecified) > 50 µM
COc1ccc(C2CC(c3ccccc3)N(C(=O)C3CC3)c3ncnn32)cc1 (stereo unspecified) > 50 µM
O=S(=O)(c1ccc2c(c1)OCCO2)N(Cc1ccccc1)Cc1nnc(-c2ccccc2)o1 > 50 µM
COCCNC(=O)c1ccn(-c2ccc3ccc(-c4ccncc4)cn23)n1 > 50 µM
COCCN(C1CCN(CCc2ccc(Cl)cc2)CC1)S(=O)(=O)c1cccc2cccnc12 > 50 µM
COc1ccc(C(=O)Nc2ccc3c(c2)Sc2ncccc2C(=O)N3C)cn1 > 50 µM
O=[N+]([O-])c1ccc2c(c1)nc1n2CCN(Cc2ccco2)C1 > 50 µM
CS(=O)(=O)N1CCCN(c2nc3cc(Cl)ccc3n3cccc23)CC1 > 50 µM
CCN(CC)c1nc(F)c2c(c1F)S(=O)(=O)CCN2Cc1ccccc1 > 50 µM
O=c1c(OC2O[C@H](CO)[C@H](O)[C@H](O)[C@H]2O)c(-c2ccc(O)cc2)oc2cc(O)cc(O)c12 (stereo partly specified) > 50 µM
COc1ccc(CNC(=O)CN2C(=O)C(C)=C(c3ccc(C)cc3)S2(=O)=O)cc1 > 50 µM
COc1ccc(N2C(=O)[C@@H]3[C@H]4c5ccccc5C=CN4C(C(=O)Nc4ccc5c(c4)OCO5)[C@@H]3C2=O)cc1 (stereo partly specified) > 50 µM
O=C(NCc1cccnc1)c1cnn2c(C(F)(F)F)cc(-c3ccccc3)nc12 > 50 µM
CC(CCc1ccccc1)NC(=O)C(=O)c1cn(CC(=O)N2CCOCC2)c2ccccc12 (stereo unspecified) > 50 µM
Cn1c(CCN2CCCC2)nc2cc(NC(=O)c3ccccc3)ccc21 > 50 µM
CCOC(=O)c1cn(C2CC2)c2cc(N3CCNCC3)c([N+](=O)[O-])cc2c1=O > 50 µM
COc1cccc(NC(=O)C2Cn3ccnc3C3(CCN(C(C)=O)CC3)O2)c1 (stereo unspecified) > 50 µM
CN1CC2CN(C(=O)c3ccc(F)cc3)CCN2Cc2ccccc21 (stereo unspecified) > 50 µM
CC(C)N(C(=O)Cn1c(=O)[nH]c2ccccc21)c1ccccc1 > 50 µM
CC(C(=O)Nc1ccccc1)n1cnc2nc(N3CCCCC3)ncc2c1=O (stereo unspecified) > 50 µM
CC1CCN(c2nc(F)c3c(c2F)S(=O)(=O)CCN3Cc2cccnc2)CC1 > 50 µM
CSc1ccc(CNCc2c(C(=O)O)n(Cc3ccccc3)c3cc(C)ccc23)cc1 > 5 µM
O=C(NCc1ccc(F)cc1)C1CCCN(c2cnc3nccnc3c2)C1 (stereo unspecified) > 50 µM
O=C(CSc1ncnc2c1sc1cccc(F)c12)N1CCCCCC1 > 50 µM
CCOC(=O)c1cc2c(ccn2C)n1CC(=O)N1CCc2ccccc2C1 > 50 µM
Cc1ccc(-n2cc3c(N4CCCC(C(=O)NCC5CCCCC5)C4)ncnc3n2)cc1 (stereo unspecified) > 50 µM

IC50, active:
O=S(=O)(Nc1ccc2oc(-c3ccncc3)nc2c1)c1ccccc1 40.8 µM
COc1ccc(COC(=O)C2=C(C)NC(=O)CC2c2cccc([N+](=O)[O-])c2)cc1 (stereo unspecified) 3.06 µM
O=C(Cn1nc2ccc(C(=O)NCc3ccccc3)cn2c1=O)Nc1ccc2c(c1)OCO2 33.6 µM
Cc1nc(SCC#N)c2oc3ccccc3c2n1 40 µM
O=C(Cn1c(=O)n(Cc2ccc(F)cc2)c(=O)c2ncccc21)Nc1ccccc1 29.5 µM
Cc1cccc(CNC(=O)C2CCCN(S(=O)(=O)Cc3ccc(F)cc3)C2)c1 (stereo unspecified) 26.6 µM
COc1ccc(CCNC(=O)c2cc(C3CC3)nc3c2cnn3C(C)C)cc1 3.47 µM
Cc1cc(Nc2ccc(C(=O)NCc3ccco3)cc2)n2nc(-c3cccnc3)nc2n1 22.3 µM
O=C(NCc1ccc2c(c1)OCO2)c1cc2c(s1)-c1ccccc1OC2 7.07 µM
Cc1ccc2cc(CCNC(=O)c3cccc(Br)c3)c(=O)[nH]c2c1 37.2 µM
Cc1nn(-c2ccc(F)cc2)cc1-c1noc(C(=O)NCc2ccccn2)n1 22.8 µM
CCN1C(=O)COc2ccc(NC(=O)c3ccc(OCc4nonc4C)cc3)cc21 4.85 µM
O=C(c1cc(-c2ccncc2)n[nH]1)N1CCC(C(=O)N2CC=C(c3ccccc3)CC2)CC1 24.3 µM
COc1ccc2c(C)c(CC(=O)N3CCC[C@H]3C(=O)O)c(=O)oc2c1C 44.6 µM
O=c1[nH]c2ccc(S(=O)(=O)Nc3ccc(O)c4ccccc34)cc2[nH]1 20 µM
CCc1c(C)c(C#N)c2nc3ccccc3n2c1N1CCN(C2CCCC2)CC1 12.3 µM
Cc1ccc(Cl)c(-n2nnc(C(=O)Nc3ccccc3C#N)c2C)c1 12 µM
CC1(O)CC(=O)c2c(cc3cc(O)cc(O)c3c2O)C1 (stereo unspecified) 0.0671 µM
CCc1nc(N2CCCC2=O)sc1C(=O)Nc1cccc(C(C)=O)c1 17.1 µM
COc1ccc(-c2nc(-c3nnn(Cc4ccc(F)cc4)c3C)no2)c(OC)c1 5.4 µM
COc1ccc(CNC(=O)c2ccccc2N2C(=O)N3CCc4c([nH]c5ccccc45)[C@@]3(C)C2=O)cc1 37.4 µM
Cc1noc(-c2cc(=O)n(CC(=O)NCc3ccccc3F)c3ccccc23)n1 9.89 µM
CCC(=O)Nc1ccc2c(c1)nc(CSc1nccc(C)n1)n2CC 0.365 µM
Cc1cccc(NC(=O)Nc2nnc(CC(=O)NCc3ccccc3)s2)c1 11.3 µM
COc1ccccc1Nc1ncc(C(=O)NCCc2ccc(Cl)cc2)c2ccccc12 4.31 µM
O=C1CC(O)C(O)c2cccc(O)c21 (stereo unspecified) 23.6 µM
CCc1ccc(NC(=O)Cc2nnc3cc(-c4nc(C)no4)ccn23)cc1 4.07 µM
CCOc1ccc(Nc2cc(C(=O)NCCc3ccccc3)c3ccccc3n2)cc1 26 µM
COc1cccc(/C=C/C(=O)Nc2ccc(N3CCOCC3)cc2)c1OC 2.32 µM
CCOc1ccc2c(c1)c(=O)c(C(=O)c1ccccc1)cn2CC(=O)Nc1ccc2c(c1)OCCO2 24 µM
O=C(O)CCCCCN1C(=O)CC(c2ccc(Cl)cc2)CC1=O 16.7 µM
O=C(C(c1ccccc1)c1ccccc1)N1CCC(c2nc3c(nnn3Cc3c(F)cccc3Cl)c(=O)[nH]2)CC1 6.96 µM
Cc1nc(-c2cccc(NC(=O)c3ccccc3Cl)c2)no1 16.6 µM
COc1cccc(C(=O)NCC(=O)Nc2nc3ccccc3[nH]2)c1 43.8 µM
CC1(C)OC2=C(C(=O)c3cc(O)cc(O)c3C2=O)c2cc(CO)c(O)cc21 18.5 µM
CCCCCCCCCC(CCCCCCCCCC(=O)O)O[C@H]1O[C@@H](COC(C)=O)[C@H](O)[C@@H](O)[C@H]1OC(=O)CC(=O)O (stereo partly specified) 18.4 µM
COc1cc(C)cc2c1C(=O)c1c(cc(O)c(Cl)c1O)C2=O 1.48 µM
Cc1ccc(C)c(-c2cc3c(=O)n(Cc4noc(CN5CCCCC5)n4)ccn3n2)c1 4.49 µM
COc1ccc2c(c1)CCc1c(C(=O)NCc3cccnc3)noc1-2 20.3 µM
O=C(CSc1cn(Cc2ccccc2)c2ccccc12)Nc1ccc2c(c1)OCCO2 17.2 µM
COc1ccc(CCNC(=O)CSc2cn(CCNC(=O)c3ccc(F)cc3)c3ccccc23)cc1OC 28.1 µM
N#Cc1cn(CC(=O)N2CCc3ccccc32)c2ccccc12 17.2 µM
CC(C)NC(=O)Cn1ccn2nc(-c3ccc(Cl)cc3)cc2c1=O 8.61 µM
Cc1ccc(Cc2nc(-c3ccc(=O)[nH]c3)no2)cc1 0.423 µM
Cc1cc(=O)n(CC(=O)Nc2ccccc2C)c(Nc2ccc(F)cc2)n1 19.5 µM
O=c1[nH]c(C2CCN(S(=O)(=O)c3ccc(S(=O)(=O)NC4CCCCC4)cc3)CC2)nc2c1nnn2Cc1c(Cl)cccc1Cl 8.62 µM
COc1ccc(COc2ccc3c(C)c(CC(=O)N4CC[C@@]5(O)CCCC[C@H]5C4)c(=O)oc3c2)cc1 2.27 µM
O=C(COc1ccc(Cl)cc1Cl)Nc1ccc2[nH]c(=O)[nH]c2c1 5.44 µM
Cc1nc2cccnc2n1C1CCN(C(=O)c2cc3cc(Cl)ccc3[nH]2)C1 (stereo unspecified) 25.3 µM
CC1=C(c2ccc(F)cc2)S(=O)(=O)N=C1Nc1ccc(Cl)cc1 28.1 µM
CCCc1nc2sc3c(NCCN4CCOCC4)ncnc3c2c2c1CCC2 0.592 µM
Cc1ccccc1NC(=O)Cn1c(N2CCOCC2)nc2cc(C)n(C)c2c1=O 20.1 µM
CCC(C)c1ccc(-c2csc(Cn3c(CN4CCN(C)CC4)nc4ccccc4c3=O)n2)cc1 (stereo unspecified) 15.3 µM
COc1ccc(-c2cc3c(=O)n(CC(=O)Nc4ccccc4Cl)ccn3n2)cc1 10 µM
CCc1cc2cc3c(cc2nc1SCC(=O)Nc1cccc(C(C)=O)c1)OCO3 2.58 µM
COc1ccc(CN(C(=O)c2cc(-c3ccc(C)cc3)on2)C2CCS(=O)(=O)C2)cc1 (stereo unspecified) 38 µM
CCOc1ccc(-c2ccc3nnc(SCC(=O)Nc4cccc(C(C)=O)c4)n3n2)cc1 1.65 µM
Cc1cc(C)c2cc3c(nc2c1)OC(=O)N(Cc1ccco1)C3 9.77 µM
CC1CCN(c2cc(-n3cnc(C(=O)N4CCCCC4)c3)ncn2)CC1 25.9 µM
CCCCNC(=O)C1Sc2nnc(-c3ccccc3)n2NC1c1ccccc1 (stereo unspecified) 18.1 µM
O=C(Cn1cncc(C(=O)NC2CCCC2)c1=O)Nc1cccc(F)c1 21.6 µM
CCc1ccccc1NC(=O)COc1ccccc1-c1nnc(-c2ccccc2)o1 23.5 µM
Cc1c(C)n(-c2ccccc2)c2ncn(CC(=O)NC(C)c3ccccc3)c(=O)c12 (stereo unspecified) 16.7 µM
Cc1ccccc1Cn1ccc(NC(=O)c2noc(C)c2[N+](=O)[O-])n1 6.9 µM
Cc1cccc(NC(=O)Nc2ccc(C)n(CC(=O)Nc3ccccc3)c2=O)c1 4.73 µM
c1ccc(-c2ccc(NCc3ccc4c(c3)OCO4)nn2)cc1 6.27 µM
CCn1c(COc2cccc(C(F)(F)F)c2)nnc1SCc1ccc(Cl)cc1 9.88 µM
CCCc1nc2sc3c(NCCc4ccc(OC)c(OC)c4)ncnc3c2c2c1CCC2 < 0.05 µM
O=C1C[C@@H](O)[C@H](O)[C@@]23O[C@@]12C1(Oc2cccc4cccc(c24)O1)[C@@H]1O[C@@H]1[C@@H]3O 24.3 µM
COc1ccc(C(=O)NCCc2nnc3ccc(SCC(=O)NCc4ccc(F)cc4)nn23)cc1 15.7 µM
COc1ccc(OC)c(NC(=O)CS(=O)(=O)c2cn(CC(=O)N3CCC(C)CC3)c3ccccc23)c1 25 µM
CC(C)(C)C(=O)Nc1ccc(SCc2nnc(-c3ccccc3)o2)cc1 21.8 µM
COc1ccc(C)cc1NC(=O)CSc1nc(C)nc2c1oc1ccccc12 22 µM
Cc1cc(N2CCN(c3ncccn3)CC2)nc2ccc(NC(=O)c3ccncc3)cc12 7.27 µM
N#Cc1c(Cl)cccc1Oc1ccc(S(=O)(=O)N2CCC(O)CC2)cc1 19.5 µM
